Reference: US5571804A, “Cephalosporin antibiotics” (priority 1993, dated 1996)

Key:
[1] = system: Staphylococcus aureus giorgio; assay: MIC, two-fold agar dilution; assay type: cell-based; conditions: Muller-Hinton agar, 37° C., 20 hours
[2] = system: Staphylococcus aureus 241; assay: MIC, two-fold agar dilution; assay type: cell-based; conditions: Muller-Hinton agar, 37° C., 20 hours
[3] = system: Staphylococcus epidermidis 887E; assay: MIC, two-fold agar dilution; assay type: cell-based; conditions: Muller-Hinton agar, 37° C., 20 hours
[4] = system: Citrobacter diversus 2046E; assay: MIC, two-fold agar dilution; assay type: cell-based; conditions: Muller-Hinton agar, 37° C., 20 hours
[5] = system: Klebsiella aerogenes SHV-1 1976E; assay: MIC, two-fold agar dilution; assay type: cell-based; conditions: Muller-Hinton agar, 37° C., 20 hours
E. coli 3190Y = assay: MIC, two-fold agar dilution; assay type: cell-based; conditions: Muller-Hinton agar, 37° C., 20 hours
Enterobacter cloacae P99 = assay: MIC, two-fold agar dilution; assay type: cell-based; conditions: Muller-Hinton agar, 37° C., 20 hours
E. coli TEM1 1193E = assay: MIC, two-fold agar dilution; assay type: cell-based; conditions: Muller-Hinton agar, 37° C., 20 hours
[6] = system: Pseudomonas aeruginosa 6065; assay: MIC, two-fold agar dilution; assay type: cell-based; conditions: Muller-Hinton agar, 37° C., 20 hours
[7] = pharmakinetic variables in SD rats; conditions: rat, in vivo, iv, 20 mg/kg
Description: The pharmakinetic variables were determined using SD rats (.male.) of a body weight of 230±10g as follows. The "S" compound of each of the Examples was injected to femoral vein of 4-5 rats by 20mg/Kg and then blood was collected from femoral artery in 1, 2.5, 5, 10, 20, 40, 60 and 120 min.

E. coli 851E = assay: MIC, two-fold agar dilution; assay type: cell-based; conditions: Muller-Hinton agar, 37° C., 20 hours
E. coli TEM9 2639E = assay: MIC, two-fold agar dilution; assay type: cell-based; conditions: Muller-Hinton agar, 37° C., 20 hours
[8] = system: Pseudomonas aeruginosa 1912E; assay: MIC, two-fold agar dilution; assay type: cell-based; conditions: Muller-Hinton agar, 37° C., 20 hours
[9] = system: Enterobacter cloacae IND + VE 1194E; assay: MIC, two-fold agar dilution; assay type: cell-based; conditions: Muller-Hinton agar, 37° C., 20 hours
[10] = system: Streptococcus laecalis 29212A; assay: MIC, two-fold agar dilution; assay type: cell-based; conditions: Muller-Hinton agar, 37° C., 20 hours
Proteus vularis 6059A = assay: MIC, two-fold agar dilution; assay type: cell-based; conditions: Muller-Hinton agar, 37° C., 20 hours
[11] = system: Staphylococcus aureus 6538P; assay: MIC, two-fold agar dilution; assay type: cell-based; conditions: Muller-Hinton agar, 37° C., 20 hours
[12] = system: Pseudomonas aeruginosa 10145; assay: MIC, two-fold agar dilution; assay type: cell-based; conditions: Muller-Hinton agar, 37° C., 20 hours
E. coli TEM5 3739E = assay: MIC, two-fold agar dilution; assay type: cell-based; conditions: Muller-Hinton agar, 37° C., 20 hours
E. coli 10536 = assay: MIC, two-fold agar dilution; assay type: cell-based; conditions: Muller-Hinton agar, 37° C., 20 hours
E. coli TEM3 3455E = assay: MIC, two-fold agar dilution; assay type: cell-based; conditions: Muller-Hinton agar, 37° C., 20 hours
[13] = system: Salmonella typhimurium 14028A; assay: MIC, two-fold agar dilution; assay type: cell-based; conditions: Muller-Hinton agar, 37° C., 20 hours
[14] = system: Klebsiella aerogenes K1 + 1082E; assay: MIC, two-fold agar dilution; assay type: cell-based; conditions: Muller-Hinton agar, 37° C., 20 hours
[15] = system: Serratia marcescens 1826E; assay: MIC, two-fold agar dilution; assay type: cell-based; conditions: Muller-Hinton agar, 37° C., 20 hours
Staphylococcus aureus 77 = assay: MIC, two-fold agar dilution; assay type: cell-based; conditions: Muller-Hinton agar, 37° C., 20 hours
E. coli TEM7 3457E = assay: MIC, two-fold agar dilution; assay type: cell-based; conditions: Muller-Hinton agar, 37° C., 20 hours
[16] = system: Acinetobacter calcoaceticus 15473A; assay: MIC, two-fold agar dilution; assay type: cell-based; conditions: Muller-Hinton agar, 37° C., 20 hours

Compound | minimal inhibitory concentration (MIC) [1] | minimal inhibitory concentration (MIC) [2] | minimal inhibitory concentration (MIC) [3] | minimal inhibitory concentration (MIC) [4] | minimal inhibitory concentration (MIC) [5] | minimal inhibitory concentration (MIC) (E. coli 3190Y) | minimal inhibitory concentration (MIC) (Enterobacter cloacae P99) | minimal inhibitory concentration (MIC) (E. coli TEM1 1193E) | minimal inhibitory concentration (MIC) [6] | minimal inhibitory concentration (MIC) (E. coli 851E) | minimal inhibitory concentration (MIC) [10] | minimal inhibitory concentration (MIC) (Proteus vularis 6059A) | minimal inhibitory concentration (MIC) [11] | minimal inhibitory concentration (MIC) [12] | minimal inhibitory concentration (MIC) (E. coli 10536) | minimal inhibitory concentration (MIC) [13] | minimal inhibitory concentration (MIC) [14] | minimal inhibitory concentration (MIC) [15] | minimal inhibitory concentration (MIC) (Staphylococcus aureus 77) | minimal inhibitory concentration (MIC) [16] | other results
Nc1nc(/C(=N/O[C@H](C(=O)O)c2ccc(O)c(O)c2)C(=O)N[C@@H]2C(=O)N3C(C(=O)O)=C(CSc4nc(N)c5c(n4)CCC5)CS[C@H]23)cs1 [Compound I-4S, 7-[(Z)-2-(aminothiazol-4-yl)-2-(α-carboxyl-3,4-dihydroxybenzyioxyimino)acetamido]-3-(4-amino-5,6-cyclopentapyrimidine-2-yl)thiomethyl-3-cephem-4-carboxylate] | 1 | 64 | 32 | 0.063 | 0.13 | 0.031 | 8 | 0.063 | 0.13 | 0.031 | 4 | 0.13 | 1 | 0.13 | ≤ 0.008 | 0.016 | 0.031 | 0.25 | 8 | 0.13 | AUC at 2 h [7]: 55500 ng·h/mL; half-life [7]: 57 min; minimal inhibitory concentration (MIC) (E. coli TEM9 2639E): 0.25; minimal inhibitory concentration (MIC) [8]: 0.25; minimal inhibitory concentration (MIC) [9]: 2; minimal inhibitory concentration (MIC) (E. coli TEM5 3739E): 0.063; minimal inhibitory concentration (MIC) (E. coli TEM3 3455E): 0.016; minimal inhibitory concentration (MIC) (E. coli TEM7 3457E): ≤ 0.008
Nc1cc(SCC2=C(C(=O)O)N3C(=O)[C@@H](NC(=O)/C(=N\O[C@@H](C(=O)O)c4ccc(O)c(O)c4)c4csc(N)n4)[C@H]3SC2)ncn1 [Compound I-7R, 7[-(Z)-2-(aminothiazol-4-yl)-2-(α-carboxy-3,4-dihydroxybenzyloxyimino)acetamido]-3-(6-amino-pyrimidine-4-yl)thiomethyl-3cephem-4-carboxylate] | 2 | 128 | 32 | 0.13 | 0.25 | 0.063 | 8 | 0.13 | 4 | 0.13 | 4 | 0.25 | 2 | 2 | 0.016 | 0.13 | 0.25 | 0.5 | 8 | 0.25 | minimal inhibitory concentration (MIC) (E. coli TEM9 2639E): 0.25; minimal inhibitory concentration (MIC) [8]: 0.25; minimal inhibitory concentration (MIC) [9]: 4; minimal inhibitory concentration (MIC) (E. coli TEM5 3739E): 0.063; minimal inhibitory concentration (MIC) (E. coli TEM3 3455E): 0.031; minimal inhibitory concentration (MIC) (E. coli TEM7 3457E): 0.031
CC(C)(O/N=C(\C(=O)N[C@@H]1C(=O)N2C(C(=O)[O-])=C(C[n+]3ccccc3)CS[C@H]12)c1csc(N)n1)C(=O)O [Ceftazidime, reference compound] | 4 | > 128 | > 128 | 0.5 |  | 0.063 |  |  | 16 |  | > 128 | 0.063 | 16 | 2 | 0.13 | 0.25 | 0.25 | 0.25 | 32 | 2 | AUC at 2 h [7]: 31100 ng·h/mL; minimal inhibitory concentration (MIC) [8]: 1
Nc1cc(SCC2=C(C(=O)O)N3C(=O)[C@@H](NC(=O)/C(=N\O[C@@H](C(=O)O)c4ccc(O)c(O)c4)c4csc(N)n4)[C@H]3SC2)nc(N)n1 [Compound I-6R, 7-[(Z)-2-(aminothiazol-4-yl)-2-(α-carboxy-3,4-dihydroxybenzyloxyimino)acetamido]-3-(2,6-diamino-pyrimidine-4-yl)thiomethyl-3-cephem-4-carboxylate] | 1 | 64 | 32 | 0.13 | 0.25 | 0.063 | 8 | 0.063 | 1 | 0.063 | 4 | 0.25 | 1 | 0.25 | 0.016 | 0.13 | 0.25 | 0.5 | 16 | 0.25 | minimal inhibitory concentration (MIC) (E. coli TEM9 2639E): 0.25; minimal inhibitory concentration (MIC) [8]: 0.25; minimal inhibitory concentration (MIC) [9]: 4; minimal inhibitory concentration (MIC) (E. coli TEM5 3739E): 0.063; minimal inhibitory concentration (MIC) (E. coli TEM3 3455E): 0.031; minimal inhibitory concentration (MIC) (E. coli TEM7 3457E): 0.016
Nc1cc(SCC2=C(C(=O)O)N3C(=O)[C@@H](NC(=O)/C(=N\O[C@H](C(=O)O)c4ccc(O)c(O)c4)c4csc(N)n4)[C@H]3SC2)nc(N)n1 [Compound I-6S, 7-[(Z)-2-(aminothiazol-4-yl)-2-(α-carboxy-3,4-dihydroxybenzyloxyimino)acetamido]-3-(2,6-diamino-pyrimidine-4-yl)thiomethyl-3-cephem-4-carboxylate] | 1 | 64 | 32 | 0.063 | 0.13 | 0.031 | 8 | 0.031 | 0.25 | 0.031 | 2 | 0.13 | 1 | 0.25 | ≤ 0.008 | 0.016 | 0.031 | 0.13 | 8 | 0.13 | AUC at 2 h [7]: 59800 ng·h/mL; half-life [7]: 62 min; minimal inhibitory concentration (MIC) (E. coli TEM9 2639E): 0.13; minimal inhibitory concentration (MIC) [9]: 2; minimal inhibitory concentration (MIC) (E. coli TEM5 3739E): 0.063; minimal inhibitory concentration (MIC) (E. coli TEM3 3455E): 0.016; minimal inhibitory concentration (MIC) (E. coli TEM7 3457E): ≤ 0.008
